Measurements taken from patent US10000452B1, “Quinolone-based compounds, formulations, and uses thereof” (University of South Florida, priority 2016, dated 2018).
≈ marks a conversion by molar mass, not a printed value. Like-named read-outs stand apart in the source and are kept apart here.

What was measured:
[1] = tested on: malarial strain W2 (pyrimethamine and chloroquine-resistant); test: in vitro antimalarial activity against multidrug resistant strain W2; type: cell-based, P. falciparum; details: Plasmodium falciparum
[2] = lipophilicity log D at pH 7.4; type: physicochemical; details: octanol/water
From the text: (§1) Furthermore, to profile the properties of the piperazinyl-4(1H)-quinolones, and to identify potential limitations, aqueous solubility and lipophilicity log D were experimentally determined via LC/MS-based assays as described by the Manetsch laboratory previously^8,10,31,32 (Tables 9-12). Encouragingly, the piperazinyl-4(1H)-quinolones were much more soluble than the previously described phenoxyethoxy-4(1H)-quinolone analogues.^19 As expected, the solubility of all compounds was affected by pH, with better solubility under more acidic conditions.
(§2) In parallel to testing the compounds for in vitro antimalarial activity, a limited structure-property relationship (SPR) study focusing on log D and aqueous solubility was conducted to assess potential physiochemical liabilities (FIG. 22). […] For these reasons, physicochemical properties were not strongly considered as selection criteria for in vivo efficacy studies.

Pb-infected mice = test: in vivo efficacy scouting assay against blood stages; set-up: species or system P. berghei; mice; details: single oral 50 mg/kg dose 1 day PI
Description: The screening involved a single oral 50 mg/kg dose 1 day post infection (PI) and an assessment of parasitemia on days 3 PI and 6 PI (Table 6).
The screening was performed by treating two infected mice with a single 50 mg/kg oral dose of test compound suspended in PEG400 on day 1 postexposure (PE) followed by assessing parasitemia on days 3 and 6 PE.

J774 mammalian cells = test: cytotoxicity to J774 cells; type: cell-based; details: Mus musculus, J774, read-out: EC50 J774 (μM)
Description: This allowed a simplified method for comparing the different assays being simultaneously run. Additionally, each compound was also tested for cytotoxicity using mammalian J774 cell lines in a 96-well plate format.^12-14, 16

[3] = aqueous solubility (LC/MS- or HPLC-based assay); type: physicochemical
From the text: as §1, §2

[4] = tested on: P. berghei sporozoites expressing luciferase; test: in vitro liver stage activity, luciferase sporozoites infecting HEPG2 hepatoma cells; type: cell-based; details: Plasmodium berghei
[5] = tested on: malarial strain TM90-C2B (mefloquine, chloroquine, atovaquone, and pyrimethamine-resistant); test: microbe, parasite or virus in culture; type: cell-based, P. falciparum; details: for EC50: Plasmodium falciparum, TM90, read-out: EC50 TM90-C2B (nM); for RI: RI = EC50 TM90-C2B/EC50 W2
From the text: Ideally, the RI of a compound should lie between 0.3 and 3.0 in order to avoid rapidly inducing resistance in the parasite. […]

[6] = aqueous solution (buffer not named), pH 2, simulated gastric fluid, pH 2.0, read-out: Solubility pH 2.0
[7] = aqueous solution (buffer not named), pH 6.5, aqueous buffer, pH 6.5, read-out: Solubility pH 6.5
[8] = aqueous medium, pH 2, simulated gastric fluid, pH 2.0, read-out: Solubility pH 2.0
[9] = aqueous medium, pH 6.5, aqueous buffer, pH 6.5, read-out: Solubility pH 6.5
[10] = aqueous solution, pH 2, simulated gastric fluid, pH 2.0, read-out: Solubility pH 2.0
[11] = aqueous solution, pH 6.5, aqueous buffer, pH 6.5, read-out: Solubility pH 6.5

SMILES | EC50 ([1]; read-out: EC50 W2 (nM)) [nM] | chromatographic logD [2] | % Inhibition Day 6 PI (Pb-infected mice; vs untreated animals) | EC50 (J774 mammalian cells) [µM] | solubility [3, 6] [µM] | solubility [3, 7] [µM] | EC50 ([4]; HEPG2 cells) [pM] | EC50 [5] [nM] | RI [5] | solubility [3, 8] [µM] | solubility [3, 9] [µM] | activities in these scout assays (Pb-infected mice; result in words) | solubility [3, 10] [µM] | solubility [3, 11] [µM] | EC50 ([4]; HepG2, text values printed in pM) [pM] | inhibition in vivo at 50 mg/kg (Pb-infected mice; Plasmodium berghei, 144 h, vs untreated animals, read-out: % Inhibition Day 6 PI) [%] | Solubility pH 2.0 (μM) ([3]; pH 2.0) | Solubility pH 6.5 (μM) ([3]; pH 6.5) | EC50 ([1]; read-out: EC50 W2) [nM]
COC(=O)c1c[nH]c2ccc(CN3CCN(c4ccc(OC)cc4)CC3)cc2c1=O [Compound 8ag, Methyl 6-((4-(4-methoxyphenyl)piperazin-1-yl)methyl)-4-oxo-1,4-dihydroquinoline-3-carboxylate] | 164 | 1.91 | little to moderate protection | > 20 | ≥ 80 | 20 to 39.9 (≈ 8.15 to 16.3 µg/mL) | > 100000 | 2900 | 17.7 | – | – | – | – | – | – | – | – | – | –
COC(=O)c1c[nH]c2cc(N3CCN(Cc4ccccc4)CC3)c(C)cc2c1=O [Compound 8g, Methyl 7-(4-benzylpiperazin-1-yl)-6-methyl-4-oxo-1,4-dihydroquinoline-3-carboxylate] | 13.2 | 2.37 | – | > 20 | – | – | > 100000 | 982 | 74.4 | ≥ 80 | ≥ 80 | – | – | – | – | – | – | – | –
COC(=O)c1c[nH]c2cc(CN3CCN(c4ccc(F)cc4)CC3)c(OC)cc2c1=O [Compound 8aa, Methyl 7-((4-(4-fluorophenyl)piperazin-1-yl)methyl)-6-methoxy-4-oxo-1,4-dihydroquinoline-3-carboxylate] | 1.79 | 1.31 | 56.9% | > 20 | – | – | 32300 | 218 | – | – | – | excellent activities | 60 to 79.9 (≈ 25.5 to 34 µg/mL) | ≥ 80 | – | – | – | – | –
COC(=O)c1c[nH]c2cc(N3CCN(c4ccc(OC)cc4)CC3)c(OC)cc2c1=O [Compound 8f, Methyl 6-methoxy-7-(4-(4-methoxyphenyl)piperazin-1-yl)-4-oxo-1,4-dihydroquinoline-3-carboxylate] | 42.9 | 2.48 | – | > 20 | – | – | > 100000 | 1980 | 46.2 | – | – | – | 60 to 79.9 (≈ 25.4 to 33.8 µg/mL) | 20 to 39.9 (≈ 8.47 to 16.9 µg/mL) | – | – | – | – | –
COC(=O)c1c[nH]c2cc(CN3CCN(c4ccc(OC)cc4)CC3)ccc2c1=O [Compound 8n, Methyl 7-((4-(4-methoxyphenyl)piperazin-1-yl)methyl)-4-oxo-1,4-dihydroquinoline-3-carboxylate] | 3.56 | 2.11 | little to moderate protection | – | – | – | 123 | 222 | – | – | – | – | ≥ 80 | 40 to 59.9 (≈ 16.3 to 24.4 µg/mL) | 123 | – | – | – | –
COC(=O)c1c[nH]c2cc(N3CCN(Cc4ccccc4)CC3)ccc2c1=O [Compound 8b, Methyl 7-(4-benzylpiperazin-1-yl)-4-oxo-1,4-dihydroquinoline-3-carboxylate] | 16.2 | 2.21 | – | > 20 | – | – | 84500 | – | – | 60 to 80 (≈ 22.6 to 30.2 µg/mL) | 60 to 80 (≈ 22.6 to 30.2 µg/mL) | – | – | – | – | ~40 | 60-79.9 μM | 60-79.9 μM | –
COC(=O)c1c[nH]c2cc(N3CCN(c4ccccc4)CC3)c(C)cc2c1=O [Compound 8c, Methyl 6-methyl-4-oxo-7-(4-phenylpiperazin-1-yl)-1,4-dihydroquinoline-3-carboxylate] | 45.5 | 2.31 | little to moderate protection | 16.7 | – | – | – | 1110 | – | ≥ 80 | 40 to 59.9 (≈ 15.1 to 22.6 µg/mL) | – | – | – | – | – | – | – | –
COC(=O)c1c[nH]c2cc(CN3CCN(Cc4ccc(OC)cc4)CC3)c(C)cc2c1=O [Compound 8s, Methyl 7-((4-(4-methoxybenzyl)piperazin-1-yl)methyl)-6-methyl-4-oxo-1,4-dihydroquinoline-3-carboxylate] | 2.4 | 2.03 | little to moderate protection | > 20 | – | – | – | 1020 | 426 | ≥ 80 | ≥ 80 | – | – | – | – | – | – | – | –
COC(=O)c1c[nH]c2ccc(CN3CCN(c4ccc(C(F)(F)F)cc4)CC3)cc2c1=O [Compound 8ai, Methyl 4-oxo-6-((4-(4-(trifluoromethyl)phenyl)piperazin-1-yl)methyl)-1,4-dihydroquinoline-3-carboxylate] | 45.2 | 3.01 | – | > 20 | ≥ 80 | 1 to 19.9 (≈ 0.445 to 8.86 µg/mL) | 85000 | 2900 | 64.2 | – | – | – | – | – | – | – | – | – | –
COC(=O)c1c[nH]c2cc(CCN3CCN(Cc4ccccc4)CC3)ccc2c1=O [Compound 8ad, Methyl 7-(2-(4-benzylpiperazin-1-yl)ethyl)-4-oxo-1,4-dihydroquinoline-3-carboxylate] | 116 | 1.72 | – | > 20 | – | – | 157000 | 6170 | – | ≥ 80 | ≥ 80 | – | – | – | – | – | – | – | –
COC(=O)c1c[nH]c2cc(N3CCN(c4ccccc4)CC3)ccc2c1=O [Compound 8a, Methyl 4-oxo-7-(4-phenylpiperazin-1-yl)-1,4-dihydroquinoline-3-carboxylate] | 4.45 | 2.58 | little to moderate protection | > 20 | – | – | 74100 | – | – | 1 to 19.9 (≈ 0.363 to 7.23 µg/mL) | – | – | – | – | – | – | – | – | –
COC(=O)c1c[nH]c2cc(CN3CCN(c4ccc(OC)cc4)CC3)c(C)cc2c1=O [Compound 8t, Methyl 7-((4-(4-methoxyphenyl)piperazin-1-yl)methyl)-6-methyl-4-oxo-1,4-dihydroquinoline-3-carboxylate] | 0.575 | 2.61 | – | > 20 | – | – | 4110 | 177 | 308 | – | – | – | ≥ 80 | 20 to 39.9 (≈ 8.43 to 16.8 µg/mL) | – | – | – | – | –
COC(=O)c1c[nH]c2ccc(CN3CCN(c4ccccc4)CC3)cc2c1=O [Compound 8af, Methyl 4-oxo-6-((4-phenylpiperazin-1-yl)methyl)-1,4-dihydroquinoline-3-carboxylate] | 151 | 2.03 | – | > 20 | ≥ 80 | 20 to 39.9 (≈ 7.55 to 15.1 µg/mL) | 90500 | 3200 | 21.2 | – | – | – | – | – | – | – | – | – | –
COC(=O)c1c[nH]c2cc(CN3CCN(c4ccc(F)cc4)CC3)c(C)cc2c1=O [Compound 8u, Methyl 7-((4-(4-fluorophenyl)piperazin-1-yl)methyl)-6-methyl-4-oxo-1,4-dihydroquinoline-3-carboxylate] | 0.843 | 2.9 | – | 15.7 | – | – | 2640 | 348 | – | – | – | – | ≥ 80 | 40 to 59.9 (≈ 16.4 to 24.5 µg/mL) | – | – | – | – | 0.843
